This assay deals with P. falciparum (NF54 or 3D7 strain). The assay is described as follows: Assay for P. falciparum proliferation in infected human blood cells (SYBR Green). The assay is classed as cell-based, Plasmodium falciparum. The following applies: Plasmodium falciparum, Erythrocyte, 72 h, NF54 or 3D7 infected human erythrocytes, 72 hours; read-out: EC50 (nM), inhibitory efficacy in delaying P. falciparum proliferation in infected human blood cells. The essentials: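 Infected erythrocytes (NF54 or 3D7; final 2.5% hematocrit, 0.3% parasitemia) were incubated with compounds for 72 h at 37 °C in low oxygen (3% O2, 4% CO2, 93% N2).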

Where only a bound is given, the exact number is not on record here.

On to `CN(C(=O)c1cn2c(-c3ncccc3Cl)cnc2cn1)c1ccc(C#N)cc1` [Compound 354, 3-(3-chloropyridin-2-yl)-N-(4-cyanophenyl)-N-methylimidazo[1,2-a]pyrazine-6-carboxamide], for which the EC50 was 6070 nM.
With `CN(C(=O)c1cn2c(-c3ccc(C(F)(F)F)cc3)cnc2cn1)c1cncc(Cl)c1` [Compound 355, N-(5-chloropyridin-3-yl)-N-methyl-3-[4-(trifluoromethyl)phenyl]imidazo[1,2-a]pyrazine-6-carboxamide] the figure was 2120 nM; with `CN(C(=O)c1cn2c(-c3ccc(C(F)(F)F)cc3)cnc2cn1)c1nccs1` [Compound 356, N-methyl-N-(1,3-thiazol-2-yl)-3-[4-(trifluoromethyl)phenyl]imidazo[1,2-a]pyrazine-6-carboxamide], 6680 nM.
The figure for `CN(C)c1ccc(-c2cnc3cnc(C(=O)N(C)c4ccc(Cl)nc4)cn23)cn1` [Compound 357, N-(6-chloropyridin-3-yl)-3-[6-(dimethylamino)pyridin-3-yl]-N-methylimidazo[1,2-a]pyrazine-6-carboxamide] is 5490 nM.
The figure for `COc1ccnc(N(C)C(=O)c2cn3c(-c4ccc(C(F)(F)F)cc4)cnc3cn2)c1` [Compound 358, -(4-methoxypyridin-2-yl)-N-methyl-3-[4-(trifluoromethyl)phenyl]imidazo[1,2-a]pyrazine-6-carboxamide] is 1170 nM.
Turning to `COC[C@@H]1CCCN1c1ccc(N(C)C(=O)c2cn3c(-c4ccc(C(F)(F)F)cc4)cnc3cn2)cn1` [Compound 359, N-{6-[(2S)-2-(methoxymethyl)pyrrolidin-1-yl]pyridin-3-yl}-N-methyl-3-[4-(trifluoromethyl)phenyl]imidazo[1,2-a]pyrazine-6-carboxamide], the EC50 is greater than 10000 nM.
The figure for `CN(C(=O)c1cn2c(-c3ccc4c(c3)OCCO4)cnc2cn1)c1ccc(Cl)nc1` [Compound 360, N-(6-chloropyridin-3-yl)-3-(2,3-dihydro-1,4-benzodioxin-6-yl)-N-methylimidazo[1,2-a]pyrazine-6-carboxamide] is greater than 4570 nM; for `CC(=O)Nc1ccc(-c2cnc3cnc(C(=O)N(C)c4ccc(C)cn4)cn23)cc1` [Compound 361, 3-(4-acetamidophenyl)-N-methyl-N-(5-methylpyridin-2-yl)imidazo[1,2-a]pyrazine-6-carboxamide] it is 5150 nM.
Take `N#Cc1ccc(CNC(=O)c2cn3c(-c4ccc(C(F)(F)F)cc4)cnc3cn2)cc1` [Compound 362, -[(4-cyanophenyl)methyl]-3-[4-(trifluoromethyl)phenyl]imidazo[1,2-a]pyrazine-6-carboxamide]: the EC50 came out at 6470 nM.
Regarding `CC(C)S(=O)(=O)Nc1ccc(-c2cnc3cnc(C(=O)N(C)c4ccc(C#N)cc4)cn23)cc1` [Compound 363, N-(4-cyanophenyl)-N-methyl-3-[4-(propane-2-sulfonamido)phenyl]imidazo[1,2-a]pyrazine-6-carboxamide], the EC50 came out at 7020 nM.
With `CC(C)c1nc(-c2cnc3cnc(C(=O)N(C)c4ccc(Cl)nc4)cn23)cs1` [Compound 364, N-(6-chloropyridin-3-yl)-N-methyl-3-[2-(propan-2-yl)-1,3-thiazol-4-yl]imidazo[1,2-a]pyrazine-6-carboxamide] the figure was 8240 nM.
With `CN(C(=O)c1cn2c(-c3ccc(C(F)(F)F)cc3)cnc2cn1)c1ccc(-n2cncn2)nc1` [Compound 365, N-methyl-N-[6-(1H-1,2,4-triazol-1-yl)pyridin-3-yl]-3-[4-(trifluoromethyl)phenyl]imidazo[1,2-a]pyrazine-6-carboxamide] the figure was 6140 nM; with `CN(C(=O)c1ccc(OC(F)(F)F)cc1)c1cn2c(-c3ccc(C(F)(F)F)cc3)cnc2cn1` [Compound 366, N-methyl-4-(trifluoromethoxy)-N-{3-[4-(trifluoromethyl)phenyl]imidazo[1,2-a]pyrazin-6-yl}benzamide], greater than 6250 nM.
Turning to `Cc1nnc(-c2ccc(-c3cnc4cnc(C(=O)N(C)c5ccc(Cl)nc5)cn34)cn2)o1` [Compound 367, N-(6-chloropyridin-3-yl)-N-methyl-3-[6-(5-methyl-1,3,4-oxadiazol-2-yl)pyridin-3-yl]imidazo[1,2-a]pyrazine-6-carboxamide], the EC50 was greater than 9280 nM.
The figure for `CCn1nccc1NC(=O)c1cn2c(-c3ccc(C(F)(F)F)cc3)cnc2cn1` [Compound 368, N-(1-ethyl-1H-pyrazol-5-yl)-3-[4-(trifluoromethyl)phenyl]imidazo[1,2-a]pyrazine-6-carboxamide] is 7040 nM; for `CN(C(=O)c1cn2c(-c3ccc(C#N)cc3)cnc2cn1)c1ccc(C(F)(F)F)cc1` [Compound 369, 3-(4-cyanophenyl)-N-methyl-N-[4-(trifluoromethyl)phenyl]imidazo[1,2-a]pyrazine-6-carboxamide] it is 1160 nM.
Regarding `CN(Cc1ccccc1)C(=O)c1cn2c(-c3ccc(C(F)(F)F)cc3)cnc2cn1` [Compound 370, N-benzyl-N-methyl-3-[4-(trifluoromethyl)phenyl]imidazo[1,2-a]pyrazine-6-carboxamide], the EC50 came out at 8200 nM.
The figure for `NC(=O)c1ccc(NC(=O)c2cn3c(-c4ccc(C(F)(F)F)cc4)cnc3cn2)nc1` [Compound 371, 2-C-3-[4-(trifluoromethyl)phenyl]imidazo[1,2-a]pyrazine-6-pyridine-2,5-dicarboxamide] is greater than 10000 nM; for `CN(C(=O)c1cn2c(-c3ccc(OCCN)cc3)cnc2cn1)c1ccc(C#N)cc1` [Compound 372, 3-[4-(2-aminoethoxyl)phenyl]-N-(4-cyanophenyl)-N-methylimidazo[1,2-a]pyrazine-6-carboxamide] it is greater than 10000 nM; for `CC(=O)Nc1ccc(-c2cnc3cnc(C(=O)N(C)c4ccc(C)cn4)cn23)cn1` [Compound 373, 3-(6-acetamidopyridin-3-yl)-N-methyl-N-(5-methylpyridin-2-yl)imidazo[1,2-a]pyrazine-6-carboxamide] it is greater than 9880 nM.
With `O=C(c1cn2c(-c3ccc(C(F)(F)F)cc3)cnc2cn1)N1CCOCC1` [Compound 374, 4-({3-[4-(trifluoromethyl)phenyl]imidazo[1,2-a]pyrazin-6-yl}carbonyl)morpholine], the EC50 is greater than 9820 nM.
The figure for `CN(C(=O)c1cn2c(-c3ccc(C(F)(F)F)cc3)cnc2cn1)c1ccc(CN)cc1` [Compound 375, N-[4-(aminomethyl)phenyl]-N-methyl-3-[4-(trifluoromethyl)phenyl]imidazo[1,2-a]pyrazine-6-carboxamide] is greater than 6830 nM.
The figure for `Cc1nc2cnc(C(=O)Nc3ccc(C#N)cc3)cn2c1-c1ccc(C(F)(F)F)cc1` [Compound 376, N-(4-cyanophenyl)-2-methyl-3-[4-(trifluoromethyl)phenyl]imidazo[1,2-a]pyrazine-6-carboxamide] is 9490 nM.
The figure for `CN(C(=O)c1cn2c(-c3ccc(C#N)cc3)cnc2cn1)c1ccc(C#N)cc1` [Compound 377, N,3-bis(4-cyanophenyl)-N-methylimidazo[1,2-a]pyrazine-6-carboxamide] is 8190 nM; for `Cc1cc(-c2cnc3cnc(C(=O)N(C)c4ccc(C#N)cc4)cn23)ccn1` [Compound 378, N-(4-cyanophenyl)-N-methyl-3-(2-methylpyridin-4-yl)imidazo[1,2-a]pyrazine-6-carboxamide] it is greater than 7030 nM.
Regarding `CN(C(=O)c1cn2c(-c3ccc4c(c3)CC(=O)N4)cnc2cn1)c1ccc(Cl)nc1` [Compound 379, N-(6-chloropyridin-3-yl)-N-methyl-3-(2-oxo-2,3-dihydro-1H-indol-5-yl)imidazo[1,2-a]pyrazine-6-carboxamide], the EC50 came out at 6260 nM.
With `CN(C(=O)c1cn2c(-c3cnc(N)nc3)cnc2cn1)c1ccc(C#N)cc1` [Compound 380, 3-(2-aminopyrimidin-5-yl)-N-(4-cyanophenyl)-N-methylimidazo[1,2-a]pyrazine-6-carboxamide] the figure was 4500 nM; with `C=Cc1cnc2cnc(C(=O)N(C)c3ccc(Cl)nc3)cn12` [Compound 381, N-(6-chloropyridin-3-yl)-3-ethenyl-N-methylimidazo[1,2-a]pyrazine-6-carboxamide], 5110 nM.
With `CN(C(=O)c1cn2c(-c3ccc(C(F)(F)F)cc3)cnc2cn1)c1ccc(C2CCC2)cn1` [Compound 382, N-(5-cyclobutylpyridin-2-yl)-N-methyl-3-[4-(trifluoromethyl)phenyl]imidazo[1,2-a]pyrazine-6-carboxamide], the EC50 came to 8400 nM.
With `O=C(NCc1ccc(N2CCOCC2)cc1)c1cn2c(-c3ccc(C(F)(F)F)cc3)cnc2cn1` [Compound 383, N-{[4-(morpholin-4-yl)phenyl]methyl}-3-[4-(trifluoromethyl)phenyl]imidazo[1,2-a]pyrazine-6-carboxamide] the figure was greater than 10000 nM; with `CN(C(=O)c1cn2c(-c3ccc(C(F)(F)F)cc3)cnc2cn1)c1ccc(C(C)(C)C)nc1` [Compound 384, N-(6-tert-butylpyridin-3-yl)-N-methyl-3-[4-(trifluoromethyl)phenyl]imidazo[1,2-a]pyrazine-6-carboxamide], 6620 nM; with `CN(C(=O)c1cn2c(-c3ccncc3)cnc2cn1)c1ccc(C#N)cc1` [Compound 385, -(4-cyanophenyl)-N-methyl-3-(pyridin-4-yl)imidazo[1,2-a]pyrazine-6-carboxamide], greater than 10000 nM.
On to `N#Cc1ccc(N(CCN)C(=O)c2cn3c(-c4ccc(C(F)(F)F)cc4)cnc3cn2)cc1` [Compound 386, N-(2-aminoethyl)-N-(4-cyanophenyl)-3-[4-(trifluoromethyl)phenyl]imidazo[1,2-a]pyrazine-6-carboxamide], for which the EC50 is greater than 10000 nM.
With `CN(C(=O)c1cn2c(-c3cc4ccccc4[nH]3)cnc2cn1)c1ccc(Cl)nc1` [Compound 387, N-(6-chloropyridin-3-yl)-3-(1H-indol-2-yl)-N-methylimidazo[1,2-a]pyrazine-6-carboxamide] the figure was greater than 10000 nM.

(Values after patent publication US20150291598A1 (NOVARTIS AG, priority 2012, published 2015).)
